Test results: patent US9888679B2, “Protection of progenitor cells and regulation of their differentiation” (Proteobioactives Pty Ltd, priority 2007, dated 2018)
“Also recorded” adds a separate entry of the source.

Experiments:
Assay type in all cases: cell-based
[1] = system: Normal Human MSCs; test: Freeze/thaw viability of MSCs cryopreserved with PPS, trypan blue cell counts
Protocol: FIG. 1. The Effects of Pentosan Polysulfate (PPS) on Normal Human MSCs Freeze/Thaw Viabilities. MSCs were rapidly thawed in a 37° C. water bath and washed twice with HHF (HBSS containing 5% (v/v) Foetal Calf Serum). The cells were subsequently seeded into multiple T-75 flasks at 8,000 cells/cm^2. The cells were grown until 70-80% confluent, trypsinised and cryopreserved at cell concentrations of 50×10^6/ml in Profreeze®/7.5% DMSO supplemented with PPS at the indicated concentrations. Ampoules were retrieved from liquid nitrogen storage and rapidly thawed, gently mixed and 10 ul samples removed at time=0, 30, 60, 90 and 120 minutes. To each cell sample, 290 ul of trypan blue was added and cell counts/viability testing performed.
Cells were harvested and resuspended in cold serum free culture medium at 5.0 to 20.0×10^6 cells/ml. An equal volume of chilled complete Profreeze®-CDM medium was added to the chilled cell suspension containing 0, 10, 20, 50 and 100 micrograms/mL of PPS. The resulting final DMSO concentration was 7.5%, PPS concentration was 0, 5, 10, 25 and 50 micrograms/mL and the final cell concentration was approximately 2.5 to 10×10^6 cells/ml. The cell mixture was aliquoted into cryopreservation ampoules (Nunc, Intermed, Denmark) and cryopreserved in a C156 Freezing Container (Thermo Scientific, Melbourne, 21 Australia) at −80° C. for a −1° C./minute controlled cooling rate. The ampoules were then transferred to liquid nitrogen storage (−196° C.).
Cyropreserved cells were rapidly thawed for a minute in a 37° C. water bath and transferred to a 10 mL polypropylene tube. Approximately 3 mL of appropriate media was added dropwise to the cells with constant mixing, and made up to a final volume of 10 mL. Cells were pelleted by centrifugation at 400×g, 4° C. for 5 minutes and the supernatant aspirated. To ensure removal of residual DMSO, cells were washed in medium and centrifuged as above. Cells were resuspended in final volume of 10 mL and seeded in a 75 cm^2 flask prior to incubation in a humidified incubator at 37° C. in the presence of 5% CO2.
Aliquots of single-cell suspensions obtained after thawing progenitor cells from the PPS containing cryopreserved vials were diluted in an equal volume of 0.4% (w/v) trypan blue in phosphate buffered saline (PBS). The cell counts were determined using a haemocytometer (Neubauer Improved, Assistant, Germany) and a light microscope (Olympus CKX41, Japan).

[2] = system: human progenitor cells; test: DNA synthesis (3H-Thymidine incorporation) in micromass cultures; settings: FIG. 5
Protocol: FIG. 5. A bar graph of the concentration dependent effects of Pentosan Polysulfate (PPS) on DNA synthesis by human progenitor cells, as determined by the incorporation of ^3H-Thymidine into macromolecular DNA, after 4 day micromass cultures. *=p<0.05; **=p<0.005 relative to controls.
Ten μl of progenitor cells (7×10^6 cells/ml) were seeded into each well of a 24-well culture plate. After incubation at 37° C. in moist 5% CO2/95% air for 2-3 hours, 900 μl of DMEM-High medium (+10% FBS) and indicated concentrations PPS dissolved in DMEM-High medium were added slowly to the wells. The final PPS concentration were 0, 0.1, 0.5, 1.0, 2.5, 5.0, 10.0, 20.0 μg/ml, respectively. Every PPS concentration was established in triplicate. The cultures were allowed to proceed for 3 days. On day 4, to each well of the 24-well plate was added 640 μl of DMEM-High (+10% FBS), 80 μl of 10×PPS solution and 80 μl of 10 μCi/ml ^3H-Thymidine solution to produce a final ^3H-Thymidine concentration of […] and final PPS concentrations as indicated. The cultures were then incubated in 37° C., 5% CO2 for a further 22 hours, the medium was removed and 200 μl of 1 mg/ml Collagenase solution [Collagenase buffer: 66.7 mM NaCl, 6.7 mM KCl, 4.8 mM CaCl2.2H2O, 10 mM HEPES (pH7.4)] was added to each well. […] The radioactivity of ^3H incorporated into the DNA of proliferating cells was measured by scintillation counting.

[3] = system: human progenitor cells; test: Proteoglycan biosynthesis (35S-GAG) in 2 day monolayer cultures; settings: monolayers; FIG. 11
Description: FIG. 11. A bar graph of the concentration dependent effects of Pentosan Polysulfate (PPS), on the biosynthesis of Proteoglycans (PGs) as determined by the incorporation of radioactively labelled sulfate into the sulfated glycosaminoglycans (^35S-GAG) of PGs after 2 day monolayer cultures of human progenitor cells. The data was expressed as ^35S-GAG radioactivity as decays per minute (DPM) normalised to DNA content. *=p<0.05; **=p<0.005; ***=p<0.0005.
Murine Progenitor cells (cell lines C3H10T1/2 or ATDC5) purchased from RIKEN Cell Bank (Tsukuba, Japan) or human immunoselected Stro-1+ Progenitor cells (Mesoblast Ltd, Melbourne, Australia) were seeded into 50 mL plastic culture flasks containing 1:1 high glucose DMEM/Ham's F-12 medium (Invitrogen) supplemented with 10% FBS (Sigma) and incubated at 37° C., in 5% CO2. After confluence was reached, progenitor cells were released by trypsinization and harvested by centrifugation. Cells were inoculated to 96-well or 24-well plates at a density of 3×10^4 cells or 2×10^5 cells per well. […] The experiments were generally terminated after 48 hours incubation when proteoglycan biosynthesis was determined by measuring the incorporation of ^35SO4 into the glycosaminoglycans (^35S-GAGs) as described below.
The data was expressed as ^35S-GAG radioactivity as decays per minute (DPM) normalised to DNA content. *=p<0.05; **=p<0.005; ***=p<0.0005.

In the case of pentosan polysulfate [PPS], the “cell viability after cryopreservation and thawing” value (from here on “cell viability”) ([1]; 5 μg/ml PPS) is reported as “beneficial effect on viability at 60 minutes”, the “cell viability” value ([1]; 10 μg/ml PPS) is reported as “beneficial effect at time point 0 and then at 60 and 90 minutes” and the “cell viability” value ([1]; 25 μg/ml PPS, all time points instead of 30 minutes) is reported as “either enhanced the viability or did not adversely affect the viability”. For the same substance, the “cell viability” value ([1]; 50 μg/ml PPS, with the exception of 30 minutes) was “enhanced the viability of the progenitor cells at all time points”, the “cell viability” value ([1]; Profreeze/7.5% DMSO with PPS 5-50 μg/ml, 0-120 min after thawing, FIG. 1) was “did not adversely affect cell viability; also recorded: did not have an adverse effect on the cryopreservation; also recorded: did not have an adverse effect and may enhance the cryopreservation of progenitor cells” and the “cell viability” value ([1]; Profreeze/7.5% DMSO with PPS 5-50 μg/ml, 0-120 min after thawing, FIG. 1, listed as polysulfated polysaccharides) was “no detrimental effect on their viability”. The “cell division (3H-Thymidine incorporation into DNA)” value ([2]; 1-5 micrograms/mL) was “Marked stimulation of cell division”, the “proliferation (3H-Thymidine incorporation into DNA)” value ([2]; all PPS concentrations (0.1-20 μg/ml)) was “increased proliferation” and the “chondrogenic effect (proteoglycan synthesis)” value [3] was “chondrogenic promoting effect”.
